Legend:
GAL4-DAF-12 = biological target: T1, GAL4-DAF-12 (Caenorhabditis elegans, UniProt G5EFF5); test: Co-transfection assay: GAL4-DAF-12 and GAL4-responsive luciferase reporter in HEK293 cells; assay type: cell-based, C. elegans; details: for Activation of DAF-12, initial compound screen: bile acids 10 μM with IBAT co-transfected, assays in the presence or absence of co-transfected DAF-9; for DAF-9 independent activation of GAL4-DAF-12 (in words): 10 μM sterol, without DAF-9
T1 construct: 184-754aa (DAF-12); expressed in transfected cells; host or cells: HEK293

daf-9(dh6) null worms = test: Rescue of daf-9 null worms by extracts of sterols incubated with DAF-9 or control microsomes; details: for complete rescue of Daf-c and Mig phenotypes, animals tested: DAF-9 microsome reactions (100 μM sterol) diluted 8-fold; for effect on daf-9 animals, DAF-9 microsomes (in words) / rescue of the Daf-c phenotypes: extracts from DAF-9 microsomes incubated with 100 μM sterol; for effect on daf-9 phenotypes, control microsomes (in words): extracts from control (hOR only) microsomes incubated with 100 μM sterol
Experimental: Microsomes containing hOR or hOR and Daf-9 generated from Sf9 cells were thawed on ice and added to a final concentration of 0.5 mg/mL in 0.1M potassium phosphate buffer in the presence of an NADPH regenerating system (50 U/mL DL-isocitrate dehydrogenase, 0.1 M isocitrate and 0.1 M MgCl2). Substrates were added from stock solutions at 10^−2 M to a final concentration of 100 μM (final reaction volume of 0.5 mL). The mixture was preincubated for 3 min at 37° C. and the reaction was initiated by the addition of NADPH (1 mM). After 16 hrs, the reactions were stopped by extraction with 2×2 mL of methyl-tert-butyl-ether and the top layers were combined and dried under nitrogen. In some experiments, 0.5 μg of 1,4-cholestadiene-3-one was added as an internal standard for the extraction.
Individual 3-keto sterols and their respective 3β-hydroxy sterols were incubated with Sf9 cell microsomes co-expressing DAF-9 and the human P450 oxidoreductase (hOR). As a control, microsomes from cells expressing hOR alone were used.

daf-9(dh6) nulls = test: Rescue assay with pure steroids, daf-9(dh6) nulls; assay type: in vivo, C. elegans; details: for effect of 26-hydroxy-4-cholesten-3-one on daf-9 nulls (in words): concentrations as high as 33 μM
[1] = biological target: DAF-12 ligand binding domain (Caenorhabditis elegans, UniProt G5EFF5)
mouse CYP27A1 = biological target: T2, mouse CYP27A1 (Mus musculus, UniProt Q9DBG1); test: Co-transfection of HEK293 cells with GAL4-DAF-12, mouse CYP27A1 and bovine adrenodoxin; assay type: cell-based; details: sterol 25 μM; bovine adrenodoxin co-transfected
T2 construct: expressed in transfected cells; host or cells: HEK293
T2 sequence (Q9DBG1 33-533): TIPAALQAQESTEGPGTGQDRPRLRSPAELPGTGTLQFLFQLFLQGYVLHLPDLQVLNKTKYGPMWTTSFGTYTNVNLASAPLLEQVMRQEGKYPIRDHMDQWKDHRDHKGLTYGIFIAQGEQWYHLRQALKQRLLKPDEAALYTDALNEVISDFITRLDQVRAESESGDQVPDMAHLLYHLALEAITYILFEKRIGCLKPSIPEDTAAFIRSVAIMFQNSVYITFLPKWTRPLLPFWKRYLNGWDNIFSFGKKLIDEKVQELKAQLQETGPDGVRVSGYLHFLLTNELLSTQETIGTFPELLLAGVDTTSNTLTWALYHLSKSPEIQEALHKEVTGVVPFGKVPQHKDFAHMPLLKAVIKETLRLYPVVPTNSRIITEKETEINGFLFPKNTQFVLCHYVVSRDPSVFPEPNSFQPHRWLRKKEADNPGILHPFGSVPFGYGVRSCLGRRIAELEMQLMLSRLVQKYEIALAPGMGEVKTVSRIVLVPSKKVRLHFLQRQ
Experimental: (§1) Therefore, the ability of CYP27A1 to metabolize 4-cholesten-3-one into a DAF-12 activator was tested.

[2] = tested on: DAF-12 in the presence of DAF-9; test: Co-transfection assay: GAL4-DAF-12 reporter in HEK293 cells with co-transfected DAF-9; assay type: cell-based, C. elegans; details: 10 μM sterol; fold induction of RLU compared to ethanol control
Experimental: To screen for sterol-derived ligands of DAF-12 a co-transfection assay in HEK293 cells was performed using a chimeric GAL4-DAF-12 receptor and a GAL4-responsive luciferase reporter. […] Our initial compound screen consisted of bile acids and known vertebrate steroid and endocrine hormones as these compounds are ligands for PXR, VDR and LXR, the closest vertebrate homologs of DAF-12 (Antebi et al., 2000; Mooijaart et al., 2005).

human CYP27A1 = biological target: T3, human CYP27A1 (Homo sapiens, UniProt Q02318); test: Co-transfection of HEK293 cells with GAL4-DAF-12, human CYP27A1 and bovine adrenodoxin; assay type: cell-based; details: sterol 25 μM; bovine adrenodoxin co-transfected
T3 construct: expressed in transfected cells; host or cells: HEK293
T3 sequence (Q02318 34-531): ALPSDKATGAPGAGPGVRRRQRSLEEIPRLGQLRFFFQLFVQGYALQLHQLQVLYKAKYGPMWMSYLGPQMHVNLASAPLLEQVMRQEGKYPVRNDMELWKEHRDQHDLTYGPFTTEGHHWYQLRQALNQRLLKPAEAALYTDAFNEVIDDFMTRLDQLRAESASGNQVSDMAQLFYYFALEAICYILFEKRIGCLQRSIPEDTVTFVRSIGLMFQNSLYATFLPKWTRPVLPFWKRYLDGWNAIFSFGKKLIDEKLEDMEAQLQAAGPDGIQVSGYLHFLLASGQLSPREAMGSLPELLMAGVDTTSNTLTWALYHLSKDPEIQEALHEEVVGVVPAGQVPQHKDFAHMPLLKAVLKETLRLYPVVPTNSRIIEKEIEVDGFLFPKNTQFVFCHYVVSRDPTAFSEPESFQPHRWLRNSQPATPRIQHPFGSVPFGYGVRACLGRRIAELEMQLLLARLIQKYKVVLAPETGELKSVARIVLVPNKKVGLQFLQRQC
Experimental: as §1

C. elegans = details: in vivo; cited from earlier work
[3] = tested on: DAF-12 homolog with co-transfected DAF-9; test: Activation of the Anycolostoma ceylancium DAF-12 homolog with co-transfection of DAF-9; assay type: cell-based
Excerpt: This invention contemplates the development of strategies against nematodes, including but not limited to parasitic nematodes. Many parasitic nematodes contain homologs of the orphan nuclear receptor DAF-12, which, as described above, is a key regulator of reproductive development in C. elegans. See, e.g., Siddiqui et al. (2000). In accordance with the present invention, therefore, ligands that are operative in the DAF-9/DAF-12 pathway in C. elegans will affect the life cycles of parasitic nematodes similarly. The inventors have discovered in Anycolostoma ceylancium, for example, a DAF-12 homolog that is activated by DAF-12 ligands, identified pursuant to this invention.

[4] = control microsome reactions (100 μM sterol) diluted 8-fold
[5] = extracts from DAF-9 microsomes incubated with sterol

T1 sequence (G5EFF5 184-753): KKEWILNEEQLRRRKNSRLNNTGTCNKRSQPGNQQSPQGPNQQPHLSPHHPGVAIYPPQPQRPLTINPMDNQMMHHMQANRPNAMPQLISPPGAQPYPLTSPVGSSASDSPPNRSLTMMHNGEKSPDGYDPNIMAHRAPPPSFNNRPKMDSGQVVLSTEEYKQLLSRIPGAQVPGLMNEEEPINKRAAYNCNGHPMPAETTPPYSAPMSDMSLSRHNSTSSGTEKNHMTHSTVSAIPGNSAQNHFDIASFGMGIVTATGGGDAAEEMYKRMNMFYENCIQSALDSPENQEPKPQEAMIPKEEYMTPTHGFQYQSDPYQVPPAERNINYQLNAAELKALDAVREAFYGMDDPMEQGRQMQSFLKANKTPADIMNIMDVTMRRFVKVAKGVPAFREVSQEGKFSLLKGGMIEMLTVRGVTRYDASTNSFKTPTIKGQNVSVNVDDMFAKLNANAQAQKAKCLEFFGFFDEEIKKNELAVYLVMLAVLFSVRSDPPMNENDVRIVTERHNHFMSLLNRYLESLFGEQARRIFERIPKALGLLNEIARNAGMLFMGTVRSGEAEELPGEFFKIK
Chain of DAF-12 ligand binding domain (G5EFF5 507-753): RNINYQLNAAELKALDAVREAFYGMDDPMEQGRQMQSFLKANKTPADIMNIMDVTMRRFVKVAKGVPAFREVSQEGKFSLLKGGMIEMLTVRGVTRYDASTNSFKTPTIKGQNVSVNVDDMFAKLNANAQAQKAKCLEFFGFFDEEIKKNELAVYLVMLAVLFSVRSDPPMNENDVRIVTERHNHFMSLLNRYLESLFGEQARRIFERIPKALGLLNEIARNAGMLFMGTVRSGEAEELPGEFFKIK

C[C@]12CC[C@H]3[C@@H](CCC4=CC(=O)CC[C@@]43C)[C@@H]1CC[C@@H]2O [testosterone]
Activation of DAF-12, initial compound screen (GAL4-DAF-12): No other bile acids or endocrine hormones tested activated DAF-12

CC(=O)[C@H]1CC[C@H]2[C@@H]3CC=C4C[C@@H](O)CC[C@]4(C)[C@H]3CC[C@]12C [pregnenolone]
Activation of DAF-12, initial compound screen (GAL4-DAF-12): No other bile acids or endocrine hormones tested activated DAF-12

C[C@H](CCC(=O)O)[C@H]1CC[C@H]2[C@@H]3CC(=O)[C@@H]4C[C@H](O)CC[C@]4(C)[C@H]3CC[C@]12C [6-keto-lithocholic acid]
Activation of DAF-12, initial compound screen (GAL4-DAF-12): No other bile acids or endocrine hormones tested activated DAF-12

C[C@@H](CO)CCC[C@@H](C)[C@H]1CC[C@H]2[C@@H]3CCC4=CC(=O)CC[C@]4(C)[C@H]3CC[C@]12C [(25R),26-hydroxy-4-cholesten-3-one]
complete rescue of Daf-c and Mig phenotypes, animals tested (daf-9(dh6) null worms): 100%
daf-9 rescue by extracts from control microsome incubations (in words) (daf-9(dh6) null worms; [4]): had no biological effect
EC50 (GAL4-DAF-12): 2000 nM
DAF-9 independent activation of GAL4-DAF-12 (in words) (GAL4-DAF-12): strongly active
effect of 26-hydroxy-4-cholesten-3-one on daf-9 nulls (in words) (daf-9(dh6) nulls): had no effect
increase in binding units compared to vehicle control ([1]; 1 μM sterol): 2 fold

CC(=O)[C@H]1CC[C@H]2[C@@H]3CCC4=CC(=O)CC[C@]4(C)[C@H]3CC[C@]12C [progesterone]
Activation of DAF-12, initial compound screen (GAL4-DAF-12): No other bile acids or endocrine hormones tested activated DAF-12

C[C@H](CCC(=O)O)[C@H]1CC[C@H]2[C@@H]3[C@H](O)C[C@@H]4C[C@H](O)CC[C@]4(C)[C@H]3C[C@H](O)[C@]12C [cholic acid]
Activation of DAF-12, initial compound screen (GAL4-DAF-12): No other bile acids or endocrine hormones tested activated DAF-12

C[C@H](CCC(=O)O)[C@H]1CC[C@H]2[C@@H]3CC[C@@H]4CC(=O)CC[C@]4(C)[C@H]3CC[C@]12C [3-keto-lithocholic acid]
Activation of DAF-12, initial compound screen (GAL4-DAF-12): weak, micromolar activator of DAF-12 independent of DAF-9

C=C1/C(=C\C=C2/CCC[C@]3(C)[C@@H]([C@H](C)CCCC(C)(C)O)CC[C@@H]23)C[C@@H](O)C[C@@H]1O [1,25-dihydroxyvitamin D3]
Activation of DAF-12, initial compound screen (GAL4-DAF-12): No other bile acids or endocrine hormones tested activated DAF-12

CC(C)CCC[C@@H](C)[C@H]1CC[C@H]2[C@@H]3CCC4=CC(=O)CC[C@]4(C)[C@H]3CC[C@]12C [4-cholesten-3-one]
activation of GAL4-DAF-12 with co-transfected mouse CYP27A1 (mouse CYP27A1): potent activation
effect on daf-9 animals, DAF-9 microsomes (in words) (daf-9(dh6) null worms): indistinguishable from wild-type adults
rescue of the Daf-c phenotypes (daf-9(dh6) null worms): 100%
effect on daf-9 phenotypes, control microsomes (in words) (daf-9(dh6) null worms): did not rescue any daf-9 phenotypes
DAF-9 independent activation of GAL4-DAF-12 (in words) (GAL4-DAF-12): required the presence of DAF-9
binding (in words) ([1]; 1 μM sterol): no significant binding
activation of DAF-12 upon co-transfection with DAF-9 [2]: 109 fold
activation of GAL4-DAF-12 with co-transfected human CYP27A1 (human CYP27A1): potent activation

C[C@H](CCC(=O)O)[C@H]1CC[C@H]2[C@@H]3[C@H](O)C[C@@H]4C[C@H](O)CC[C@]4(C)[C@H]3CC[C@]12C [chenodeoxycholic acid]
Activation of DAF-12, initial compound screen (GAL4-DAF-12): No other bile acids or endocrine hormones tested activated DAF-12

C[C@H](CO)CCC[C@@H](C)[C@H]1CC[C@H]2[C@@H]3CCC4=CC(=O)CC[C@]4(C)[C@H]3CC[C@]12C [(25S),26-hydroxy-4-cholesten-3-one]
complete rescue of Daf-c and Mig phenotypes, animals tested (daf-9(dh6) null worms): 100%
daf-9 rescue by extracts from control microsome incubations (in words) (daf-9(dh6) null worms; [4]): only an incomplete rescue
molt defects (daf-9(dh6) null worms; [4]): 10%
sterile Mig adults (daf-9(dh6) null worms; [4]): 75%
EC50 (GAL4-DAF-12): 1000 nM
DAF-9 independent activation of GAL4-DAF-12 (in words) (GAL4-DAF-12): strongly active
effect of 26-hydroxy-4-cholesten-3-one on daf-9 nulls (in words) (daf-9(dh6) nulls): still exhibit Mig and/or molting defects, and sterility
worms that bypass dauer (daf-9(dh6) nulls; n>60): 93%
binding (in words) ([1]; 1 μM sterol): no significant binding

CC(C)CCC[C@@H](C)[C@H]1CC[C@H]2C3=CC[C@H]4C[C@@H](O)CC[C@]4(C)[C@H]3CC[C@]12C [lathosterol]
effect on daf-9 animals, DAF-9 microsomes (in words) (daf-9(dh6) null worms): exhibited the Mig phenotype and were sterile
rescue of the Daf-c phenotypes (daf-9(dh6) null worms): 83%
effect on daf-9 phenotypes, control microsomes (in words) (daf-9(dh6) null worms): no effect
effect on the nematode life cycle as the sole dietary sterol (C. elegans): supported full reproductive growth

CC(C)CCC[C@@H](C)[C@H]1CC[C@H]2C3=CC[C@H]4CC(=O)CC[C@]4(C)[C@H]3CC[C@]12C [lathosterone]
activation of GAL4-DAF-12 with co-transfected mouse CYP27A1 (mouse CYP27A1): had no effect
effect on daf-9 animals, DAF-9 microsomes (in words) (daf-9(dh6) null worms): indistinguishable from wild-type adults
rescue of the Daf-c phenotypes (daf-9(dh6) null worms): 100%
effect on daf-9 phenotypes, control microsomes (in words) (daf-9(dh6) null worms): did not rescue any daf-9 phenotypes
DAF-9 independent activation of GAL4-DAF-12 (in words) (GAL4-DAF-12): required the presence of DAF-9
activation of the DAF-12 homolog with co-transfection of DAF-9 [3]: causes activation of this DAF-12 homolog
ligand binding activity of DAF-9 microsomes incubated with sterol ([1]; 1:5000 dilution of DAF-9 microsomes incubated with 100 μM sterol): strong ligand binding activity
activation of DAF-12 upon co-transfection with DAF-9 [2]: 433 fold
activation of GAL4-DAF-12 with co-transfected human CYP27A1 (human CYP27A1): had no effect

CC(C)(O)CC[C@@H](O)[C@](C)(O)[C@H]1CC[C@@]2(O)C3=CC(=O)[C@@H]4C[C@@H](O)[C@@H](O)C[C@]4(C)[C@H]3CC[C@]12C [20-hydroxyecdysone]
Activation of DAF-12, initial compound screen (GAL4-DAF-12): No other bile acids or endocrine hormones tested activated DAF-12

C[C@]12C[C@H](O)[C@H]3[C@@H](CCC4=CC(=O)CC[C@@]43C)[C@@H]1CC[C@@H]2C(=O)CO [corticosterone]
Activation of DAF-12, initial compound screen (GAL4-DAF-12): No other bile acids or endocrine hormones tested activated DAF-12

CC(C)CCC[C@@H](C)[C@H]1CC[C@H]2[C@@H]3CC=C4C[C@@H](O)CC[C@]4(C)[C@H]3CC[C@]12C [cholesterol]
effect on daf-9 animals, DAF-9 microsomes (in words) (daf-9(dh6) null worms): no effect was seen
effect on daf-9 phenotypes, control microsomes (in words) (daf-9(dh6) null worms): no effect was seen

CC(C)CCC[C@@H](C)[C@H]1CC[C@H]2C3=CC[C@H]4[C@H](C)[C@@H](O)CC[C@]4(C)[C@H]3CC[C@]12C [lophenol]
effect on daf-9 animals, DAF-9 microsomes (in words) (daf-9(dh6) null worms): had no effect
effect on daf-9 phenotypes, control microsomes (in words) (daf-9(dh6) null worms): had no effect
effect on the nematode life cycle as the sole dietary sterol (C. elegans): constitutively entered dauer diapause

C[C@H](CCC(=O)O)[C@H]1CC[C@H]2[C@@H]3C(=O)C[C@@H]4C[C@H](O)CC[C@]4(C)[C@H]3CC[C@]12C [7-keto-lithocholic acid]
Activation of DAF-12, initial compound screen (GAL4-DAF-12): No other bile acids or endocrine hormones tested activated DAF-12

CC(C)CCC[C@@H](C)[C@H]1CC[C@H]2C3=CC[C@H]4[C@H](C)C(=O)CC[C@]4(C)[C@H]3CC[C@]12C [lophenone]
effect on daf-9 animals, DAF-9 microsomes (in words) (daf-9(dh6) null worms): resulted in rescue of Daf-c, none of these animals were normal
animals that failed to enter dauer, had molting defects, or were dead (daf-9(dh6) null worms; [5]): 42%
animals that were Mig (daf-9(dh6) null worms; [5]): 58%
effect on daf-9 phenotypes, control microsomes (in words) (daf-9(dh6) null worms): dependent on DAF-9
DAF-9 independent activation of GAL4-DAF-12 (in words) (GAL4-DAF-12): required the presence of DAF-9
activation of DAF-12 upon co-transfection with DAF-9 [2]: 103 fold

From patent publication US10117878B2, “Ligands for nematode nuclear receptors and uses thereof” (priority 2006, dated 2018)
